Peptide text beside a SMILES is read from it. * marks the point of attachment. X4 = C[C@H](/C=C(\Cl)[C@H](C)N)C(=O)*; X2 = C[C@H](/C=C(\F)[C@H](C)N)C(=O)*

The first assay has as its target T1, 5-hydroxytryptamine receptor 1A (Homo sapiens, UniProt P08908).
T1 sequence (P08908 whole entry): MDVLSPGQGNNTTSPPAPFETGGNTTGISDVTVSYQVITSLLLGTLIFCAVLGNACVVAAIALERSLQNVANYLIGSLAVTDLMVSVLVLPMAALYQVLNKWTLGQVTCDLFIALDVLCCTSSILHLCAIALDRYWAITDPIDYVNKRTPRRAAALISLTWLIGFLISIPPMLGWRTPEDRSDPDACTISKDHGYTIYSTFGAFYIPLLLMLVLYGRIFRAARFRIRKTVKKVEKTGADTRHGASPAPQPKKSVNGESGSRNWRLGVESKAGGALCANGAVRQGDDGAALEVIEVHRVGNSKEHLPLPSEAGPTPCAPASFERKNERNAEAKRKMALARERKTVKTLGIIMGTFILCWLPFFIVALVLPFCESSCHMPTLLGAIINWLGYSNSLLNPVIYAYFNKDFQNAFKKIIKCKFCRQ
Assay: not given
Format: functional, cell-based, CHO.
In general, IC50 refers to the point on the concentration scale where inhibition reaches its midpoint. A lower IC50 goes with higher potency. In the case of `Clc1ccc2[nH]cc(CCCCN3CCN(c4ccc5c(c4)OCCO5)CC3)c2c1`, 40 nM corresponded to half-maximal inhibition (IC50).
In the case of `c1ccc2c(CCCCN3CCN(c4ccc5c(c4)OCCO5)CC3)c[nH]c2c1`, half-maximal inhibition (IC50) was put at 8 nM.
For the compound `Fc1ccc2[nH]cc(CCCCN3CCN(c4ccc5c(c4)OCCO5)CC3)c2c1`, inhibition was half-maximal at 5 nM (IC50).
Take `NC(=O)c1cc2cc(N3CCN(CCCCc4c[nH]c5ccc(F)cc45)CC3)ccc2o1`: the midpoint of inhibition, the IC50, lay at 3 nM.

The target of the next assay is T2, Parathyroid hormone/parathyroid hormone-related peptide receptor (Homo sapiens, UniProt Q03431).
T2 sequence (Q03431 whole entry): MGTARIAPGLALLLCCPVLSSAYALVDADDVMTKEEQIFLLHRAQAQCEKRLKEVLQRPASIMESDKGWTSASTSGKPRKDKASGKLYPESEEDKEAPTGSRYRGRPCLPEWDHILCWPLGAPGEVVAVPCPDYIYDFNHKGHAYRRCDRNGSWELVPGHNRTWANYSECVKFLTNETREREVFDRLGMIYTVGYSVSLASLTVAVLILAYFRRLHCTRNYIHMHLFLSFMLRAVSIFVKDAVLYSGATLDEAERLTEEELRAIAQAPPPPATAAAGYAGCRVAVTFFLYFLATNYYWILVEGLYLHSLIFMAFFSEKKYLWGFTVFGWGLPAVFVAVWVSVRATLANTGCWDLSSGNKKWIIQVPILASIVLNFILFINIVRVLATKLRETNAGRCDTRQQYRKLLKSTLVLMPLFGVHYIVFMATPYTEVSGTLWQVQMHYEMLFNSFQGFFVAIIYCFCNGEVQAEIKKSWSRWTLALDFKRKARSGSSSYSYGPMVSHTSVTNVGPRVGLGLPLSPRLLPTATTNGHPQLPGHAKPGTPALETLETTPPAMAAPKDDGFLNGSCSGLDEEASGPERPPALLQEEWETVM
Briefly: biochemical.
In general, Kd refers to the free concentration of one partner at which half of the binding sites on the other are occupied at equilibrium, for simple one-to-one binding. Higher therefore signals weaker binding. In turn, `CC[C@H](C)[C@H](NC(=O)[C@H](CCC(=O)O)NC(=O)[C@H](CO)NC(=O)[C@H](C)/C=C(\F)[C@H](C)N)C(=O)N[C@@H](CCC(N)=O)C(=O)N[C@@H](CC(C)C)C(=O)N[C@@H](CCSC)C(=O)N[C@@H](Cc1c[nH]cn1)C(=O)N[C@@H](CC(N)=O)C(=O)N[C@@H](CC(C)C)C(=O)NCC(=O)N[C@@H](CCCCN)C(=O)N[C@@H](Cc1c[nH]cn1)C(=O)N[C@@H](CC(C)C)C(=O)N[C@@H](CC(N)=O)C(=O)N[C@@H](CO)C(=O)N[C@@H](CCSC)C(=O)N[C@@H](CCC(=O)O)C(=O)N[C@@H](CCCN=C(N)N)C(=O)N[C@H](C(=O)N[C@@H](CCC(=O)O)C(=O)N[C@@H](Cc1c[nH]c2ccccc12)C(=O)N[C@@H](CC(C)C)C(=O)N[C@@H](CCCN=C(N)N)C(=O)N[C@@H](CCCCN)C(=O)N[C@@H](CCCCN)C(=O)N[C@@H](CC(C)C)C(=O)N[C@@H](CCC(N)=O)C(=O)N[C@@H](CC(=O)O)C(=O)N[C@H](C(=O)N[C@@H](Cc1c[nH]cn1)C(=O)N[C@@H](CC(N)=O)C(=O)N[C@@H](Cc1ccccc1)C(=O)N[C@H](C(=O)N[C@@H](C)C(N)=O)C(C)C)C(C)C)C(C)C` (X2-SEIQLMHNLGKHLNSMERVEWLRKKLQDVHNFVA-NH2) showed a Kd of 6.31 nM.
On to `CC[C@H](C)[C@H](NC(=O)[C@H](CCC(=O)O)NC(=O)[C@H](CO)NC(=O)[C@H](C)/C=C(\Cl)[C@H](C)N)C(=O)N[C@@H](CCC(N)=O)C(=O)N[C@@H](CC(C)C)C(=O)N[C@@H](CCSC)C(=O)N[C@@H](Cc1c[nH]cn1)C(=O)N[C@@H](CC(N)=O)C(=O)N[C@@H](CC(C)C)C(=O)NCC(=O)N[C@@H](CCCCN)C(=O)N[C@@H](Cc1c[nH]cn1)C(=O)N[C@@H](CC(C)C)C(=O)N[C@@H](CC(N)=O)C(=O)N[C@@H](CO)C(=O)N[C@@H](CCSC)C(=O)N[C@@H](CCC(=O)O)C(=O)N[C@@H](CCCN=C(N)N)C(=O)N[C@H](C(=O)N[C@@H](CCC(=O)O)C(=O)N[C@@H](Cc1c[nH]c2ccccc12)C(=O)N[C@@H](CC(C)C)C(=O)N[C@@H](CCCN=C(N)N)C(=O)N[C@@H](CCCCN)C(=O)N[C@@H](CCCCN)C(=O)N[C@@H](CC(C)C)C(=O)N[C@@H](CCC(N)=O)C(=O)N[C@@H](CC(=O)O)C(=O)N[C@H](C(=O)N[C@@H](Cc1c[nH]cn1)C(=O)N[C@@H](CC(N)=O)C(=O)N[C@@H](Cc1ccccc1)C(=O)N[C@H](C(=O)N[C@@H](C)C(N)=O)C(C)C)C(C)C)C(C)C` (X4-SEIQLMHNLGKHLNSMERVEWLRKKLQDVHNFVA-NH2), for which binding was put at a Kd of 1.26 nM.

The target of the next assay is T2, Parathyroid hormone/parathyroid hormone-related peptide receptor.
Assay: not given
The term EC50 denotes the concentration at which the effect is half-maximal. Low values mean greater potency, high ones weaker potency. The compound `CC[C@H](C)[C@H](NC(=O)[C@H](CCC(=O)O)NC(=O)[C@H](CO)NC(=O)[C@H](C)/C=C(\F)[C@H](C)N)C(=O)N[C@@H](CCC(N)=O)C(=O)N[C@@H](CC(C)C)C(=O)N[C@@H](CCSC)C(=O)N[C@@H](Cc1c[nH]cn1)C(=O)N[C@@H](CC(N)=O)C(=O)N[C@@H](CC(C)C)C(=O)NCC(=O)N[C@@H](CCCCN)C(=O)N[C@@H](Cc1c[nH]cn1)C(=O)N[C@@H](CC(C)C)C(=O)N[C@@H](CC(N)=O)C(=O)N[C@@H](CO)C(=O)N[C@@H](CCSC)C(=O)N[C@@H](CCC(=O)O)C(=O)N[C@@H](CCCN=C(N)N)C(=O)N[C@H](C(=O)N[C@@H](CCC(=O)O)C(=O)N[C@@H](Cc1c[nH]c2ccccc12)C(=O)N[C@@H](CC(C)C)C(=O)N[C@@H](CCCN=C(N)N)C(=O)N[C@@H](CCCCN)C(=O)N[C@@H](CCCCN)C(=O)N[C@@H](CC(C)C)C(=O)N[C@@H](CCC(N)=O)C(=O)N[C@@H](CC(=O)O)C(=O)N[C@H](C(=O)N[C@@H](Cc1c[nH]cn1)C(=O)N[C@@H](CC(N)=O)C(=O)N[C@@H](Cc1ccccc1)C(=O)N[C@H](C(=O)N[C@@H](C)C(N)=O)C(C)C)C(C)C)C(C)C` (X2-SEIQLMHNLGKHLNSMERVEWLRKKLQDVHNFVA-NH2) yielded an EC50 of 9.1 nM.
On to `CC[C@H](C)[C@H](NC(=O)[C@H](CCC(=O)O)NC(=O)[C@H](CO)NC(=O)[C@H](C)/C=C(\Cl)[C@H](C)N)C(=O)N[C@@H](CCC(N)=O)C(=O)N[C@@H](CC(C)C)C(=O)N[C@@H](CCSC)C(=O)N[C@@H](Cc1c[nH]cn1)C(=O)N[C@@H](CC(N)=O)C(=O)N[C@@H](CC(C)C)C(=O)NCC(=O)N[C@@H](CCCCN)C(=O)N[C@@H](Cc1c[nH]cn1)C(=O)N[C@@H](CC(C)C)C(=O)N[C@@H](CC(N)=O)C(=O)N[C@@H](CO)C(=O)N[C@@H](CCSC)C(=O)N[C@@H](CCC(=O)O)C(=O)N[C@@H](CCCN=C(N)N)C(=O)N[C@H](C(=O)N[C@@H](CCC(=O)O)C(=O)N[C@@H](Cc1c[nH]c2ccccc12)C(=O)N[C@@H](CC(C)C)C(=O)N[C@@H](CCCN=C(N)N)C(=O)N[C@@H](CCCCN)C(=O)N[C@@H](CCCCN)C(=O)N[C@@H](CC(C)C)C(=O)N[C@@H](CCC(N)=O)C(=O)N[C@@H](CC(=O)O)C(=O)N[C@H](C(=O)N[C@@H](Cc1c[nH]cn1)C(=O)N[C@@H](CC(N)=O)C(=O)N[C@@H](Cc1ccccc1)C(=O)N[C@H](C(=O)N[C@@H](C)C(N)=O)C(C)C)C(C)C)C(C)C` (X4-SEIQLMHNLGKHLNSMERVEWLRKKLQDVHNFVA-NH2), for which a half-maximal effect (EC50) was put at 5.5 nM.

The next assay deals with Prothrombin (Homo sapiens, UniProt P00734).
Assay: not given
Broadly, the Ki is the dissociation constant of the complex between target and ligand, obtained from inhibition or displacement. `N=C(N)c1ccc([C@H]2[C@H]3C(=O)N(Cc4cccc(F)c4)C(=O)[C@H]3[C@@H]3CCCN32)cc1` yielded a Ki of 360 nM.
Compound `N=C(N)c1ccc([C@H]2[C@H]3C(=O)N(Cc4ccc(Cl)cc4)C(=O)[C@H]3[C@@H]3CCCN32)cc1` returned a Ki of 190 nM.
As for `N=C(N)c1ccc([C@H]2[C@H]3C(=O)N(Cc4cccc(F)c4F)C(=O)[C@H]3[C@@H]3CCCN32)cc1`, the affinity corresponds to a Ki of 490 nM.
On to `N=C(N)c1ccc([C@H]2[C@H]3C(=O)N(Cc4ccccc4F)C(=O)[C@H]3[C@@H]3CCCN32)cc1`, for which the Ki worked out at 500 nM.
The compound `N=C(N)c1ccc([C@H]2[C@H]3C(=O)N(Cc4ccc(F)cc4F)C(=O)[C@H]3[C@@H]3CCCN32)cc1` had an inhibitory constant (Ki) of 260 nM.

The target in the next assay is Procathepsin L (Homo sapiens, UniProt P07711).
Sequence of Procathepsin L (P07711 whole entry): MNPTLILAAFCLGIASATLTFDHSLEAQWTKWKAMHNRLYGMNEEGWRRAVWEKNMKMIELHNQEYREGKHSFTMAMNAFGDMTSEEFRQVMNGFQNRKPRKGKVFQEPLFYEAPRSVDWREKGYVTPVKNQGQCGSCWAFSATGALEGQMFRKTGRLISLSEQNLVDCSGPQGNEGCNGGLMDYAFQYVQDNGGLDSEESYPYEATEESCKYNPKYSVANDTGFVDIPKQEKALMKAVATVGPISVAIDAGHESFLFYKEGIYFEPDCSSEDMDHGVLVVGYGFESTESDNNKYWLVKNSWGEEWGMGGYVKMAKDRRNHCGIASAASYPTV
Assay: not given
With `N#Cc1nc(N2CCOCC2)nc(N(Cc2cccc(F)c2)C2CCCC2)n1`, the inhibitory constant (Ki) is 200 nM.
Turning to `N#Cc1nc(N2CCOCC2)nc(N(Cc2ccc(F)cc2F)C2CCCC2)n1`, the Ki was 126 nM.
In turn, `N#Cc1nc(N2CCOCC2)nc(N(Cc2ccc(F)cc2)C2CCCC2)n1` showed a Ki of 501 nM.
The compound `N#Cc1nc(N2CCOCC2)nc(N(Cc2ccncn2)C2CCCC2)n1` gave an inhibition constant (Ki) of 251 nM.
Regarding `N#Cc1nc(N2CCOCC2)nc(N(Cc2cc(F)ccc2F)C2CCCC2)n1`, the Ki was 251 nM.
Still for that read-out and setting: then `N#Cc1nc(N2CCOCC2)nc(N(Cc2ccncc2)C2CCCC2)n1`, with 158 nM; and `N#Cc1nc(N2CCOCC2)nc(N(Cc2cccnc2)C2CCCC2)n1`, with 100 nM.
Same read-out and setting: then `N#Cc1nc(N2CCOCC2)nc(N(Cc2ncccn2)C2CCCC2)n1`, with 398 nM; and `N#Cc1nc(N2CCOCC2)nc(N(Cc2cnccn2)C2CCCC2)n1`, with 158 nM.
Turning to `N#Cc1nc(N2CCOCC2)nc(N(Cc2c(F)cccc2F)C2CCCC2)n1`, the Ki was 100 nM.
